Experimental data: patent US9586946B2, “Selective immunoproteasome inhibitors with non-peptide scaffolds” (University of Kentucky Research Foundation, priority 2015, dated 2017)
Where a SMILES comes first, the peptide text is derived from it.

Legend:
[1] = biological target: T1, 20S human constitutive proteasome (CT-L activity) (Homo sapiens, UniProt P28074); test: Inhibition of CT-L activity of the constitutive proteasome (Suc-LLVY-AMC fluorogenic substrate); format: biochemical; conditions: inhibitor at 5 μM; remaining enzyme activity; read-out: % CP activity (remaining activity of the enzyme)
T1 construct: purchased Boston Biochem
Procedure: (§1) The computationally selected 13 compounds were tested for their inhibitory activity against the CT-L activity of the immunoproteasome. The identified active compounds were also tested for their inhibitory activity against the CT-L activity of the constitutive proteasome. For the initial activity screening, the selected compounds were dissolved in DMSO and used at a concentration of 5 μM. Epoxomicin ([…]), which reached the 100% inhibition, was used as a positive control. 20S human immunoproteasome and constitutive proteasome (Boston Biochem) were 2-fold diluted in an assay buffer (20 mM Tris/Cl, pH 8.0, 0.5 mM EDTA, 0.035% SDS).^17
(§2) Specifically, selected compounds were preincubated with 50 ng/well of the immunoproteasome or constitutive proteasome in a 96-well plate at room temperature for 13 min. 100 μM of Suc-LLVY-AMC, a fluorogenic peptide substrate for the CT-L activity, was then added to the wells. Fluorogenic signals of the free AMC (Ex: 360, Em: 460)^18 were recorded for 90 min. The initial reaction velocities (RFU/min) of each compound were calculated as a percentage of the positive control. All enzyme activity assays were carried out in triplicate.

[2] = biological target: T2, 20S human immunoproteasome (CT-L activity) (Homo sapiens, UniProt P28062); test: Inhibition of CT-L activity of the immunoproteasome (Suc-LLVY-AMC fluorogenic substrate); format: biochemical; conditions: for remaining activity at 5 µM: inhibitor at 5 μM, remaining enzyme activity, read-out: % IP activity (remaining activity of the enzyme); for IC50: unit inferred, read-out: IC50 values against the immunoproteasome; for inhibition of the CT-L activity of the immunoproteasome: 5 µM
T2 construct: purchased Boston Biochem
Procedure: as §1, §2

Compound	remaining activity at 5 µM [1]	inhibition at 5 µM ([2]; compound at 5 μM, % inhibition)	remaining activity at 5 µM [2]	IC50 [2]	inhibition by positive control ([2]; Epoxomicin at 1 tM (so in the source), positive control)	inhibition of the CT-L activity of the immunoproteasome ([2]; compound at 5 μM, % inhibition)
CCC[C@H]1C[C@H](C(=O)N[C@@H]([C@@H]2O[C@H](SC)[C@@H](O)[C@@H](O)[C@@H]2O)[C@@H](C)O)[N@@H+](C)C1 [Compound 2]	98%	36 to 85%	64%	22 µM	–	–
CC[C@H](C)[C@H](NC(=O)[C@H]([C@@H](C)CC)N(C)C(C)=O)C(=O)N[C@H](C(=O)N[C@@H](CC(C)C)C(=O)[C@@]1(C)CO1)[C@@H](C)O [Epoxomicin, reference compound]	–	–	–	–	100%	–
CC[C@H](C(=O)C(=O)NCCCN1CCOCC1)N1CC(C)C[C@@H](NC(=O)OCc2ccccc2)C1=O (stereo partly drawn) [Compound 6]	94%	–	86%	–	–	–
CCOc1ccc2[nH]c3c(c2c1)CC(C(=O)NCC1CCCCC1)N[C@@H]3c1ccc(O)c([N+](=O)[O-])c1 (stereo partly drawn) [Compound 8]	106%	–	90%	–	–	–
Cc1ccc(-c2cc(C(=O)NC[C@@H]3CCCO3)c3cc(CNS(=O)(=O)c4cccc(Cl)c4)ccc3n2)o1 [Compound 1]	80%	–	15%	1.7 µM	–	85%
O=C(C[C@@H]1CCN(CC2CC2)C[C@@H]1[C@H]1CC(c2ccccc2Cl)=NO1)NCCc1ccccn1 [Compound 9]	86%	–	87%	–	–	–
O=C(CC[C@H](NC(=O)c1cc(-c2ccoc2)nc2ccccc12)C(=O)NCc1cc(F)ccc1F)OC1CCCCC1 [Compound 15]	80%	–	74%	–	–	–
COc1ccccc1C(=O)N/C(=C/c1ccc(Br)cc1)C(=O)Nc1ccc(S(=O)(=O)/N=c2\[nH]ccs2)cc1 [Compound 13]	88%	–	91%	–	–	–
NC(=O)CC[C@H](NC(=O)[C@H](Cc1cnc[nH]1)NC(=O)OCC1c2ccccc2-c2ccccc21)C(=O)N1CCC[C@H]1C(=O)O [Compound 7] (HELM PEPTIDE1{[O=C(OCC1c2ccccc2-c2ccccc21)[*:2]].H.Q.P}$$$$V2.0)	76%	–	65%	–	–	–
CCN1CCN(CCCN2C(=O)C3[C@H](C(=O)Nc4cc(C)cc(C)c4)[C@@H]4C=C[C@]3(O4)[C@H]2C(=O)N[C@@H]2CCC[C@H](C)[C@H]2C)CC1 (stereo partly drawn) [Compound 10]	85%	–	82%	–	–	–
O=C1CN(/N=C/c2ccc(-c3ccc(Cl)cc3)o2)C(=O)N1CCCCN1CCN(C[C@@H](O)c2ccccc2)CC1 [Compound 18]	84%	–	75%	–	–	–
C=C(CCCc1ccccc1)N[C@@H](Cc1ccc(Cl)cc1)C(=O)N[C@H](Cc1ccccc1)C(=O)N[C@H](CCCNC(=N)N)C(=O)N[C@@H](Cc1c[nH]c2ccccc12)C(N)=O [Compound 17]	41%	–	42%	–	–	–
CCCCc1ccc2nc(-c3ccc(OC)cc3)cc(C(=O)NC[C@@H](C)C(=O)N3CCC[C@@H]3CO)c2c1 [Compound 4]	98%	–	79%	–	–	–
N=C(N)NCCC[C@@H]1NC(=O)[C@H](Cc2ccccc2)NC(=O)[C@@H](Cc2ccc(O)cc2)NC(=O)CNC(=O)[C@@H](Cc2c[nH]c3ccccc23)NC1=O [Compound 5] (HELM PEPTIDE1{F.R.[dW].G.[dY]}$PEPTIDE1,PEPTIDE1,1:R1-5:R2$$$V2.0)	82%	–	81%	–	–	–
Cc1ccc(CSC[C@@H](NC(=O)c2cc(-c3ccccc3)nc3ccccc23)C(=O)NCCCN2CCCC2=O)cc1 [Compound 3]	85%	–	38%	4.9 µM	–	62%
CC[C@@H](O)CNC(=O)C[C@@H]1CCN(Cc2ccc(C)s2)C[C@@H]1[C@H]1CC(c2ccccc2OC)=NO1 [Compound 12]	72%	–	69%	–	–	–
Cc1ccc(OS(=O)(=O)c2cccc(C(F)(F)F)c2)c(-c2cc(-c3ccccc3)n(CCN[C@@H]3CCNC3)n2)c1 [Compound 16]	50%	–	42%	–	–	–
Cc1cccc(Nc2ccccc2C(=O)N[C@H](CC[S@+](C)[O-])C(=O)N[C@H](C)c2ccc(F)cc2)c1C [Compound 19]	67%	–	69%	–	–	–
CCN(CC)CCNC(=O)[C@H](Cc1ccc(OCc2ccccc2)cc1)NC(=O)CCC(=O)c1ccccc1 [Compound 14]	76%	–	70%	–	–	–
COc1ccc(-c2cc(C(=O)N[C@H](CCC(=O)OC3CCCCC3)C(=O)NCCc3ccncc3)c3ccccc3n2)cc1C [Compound 11]	80%	–	80%	–	–	–
